Patent US12168059B2, “Trimeric peptides for antisense delivery” (Sarepta Therapeutics, Inc., priority 2018, dated 2024)
Where no end group is shown, it is not given here.

Tested on: HeLa-654 cells
Test: HeLa-654 eGFP assay (flow cytometry: mean fluorescence, gated cell count, F×C)
Format: cell-based, human
Description: With the 36 constructs synthesized, the ability to modulate PMO activity using the modified HeLa cell assay was tested. The HeLa-654 cells were stably transfected to express a nonfluorescent eGFP protein. The eGFP gene is interrupted by a mutant intron from the human β-globin gene (IVS2-654). The insertion alters pre-mRNA splicing to cause retention of a fragment in the mature mRNA that results in a nonfluorescent protein. PMO IVS2-654 base-pairs with the β-globin insertion, modifies mRNA splicing, and thereby leads to expression of fluorescent eGFP.
For treatment, the crude reaction mixture was diluted to 5 μM in media. The concentration of the modular construct was calculated based on the original concentration of the module 1-2 conjugate mixed in the reaction. Using media containing 10% fetal bovine serum (FBS), the cells were treated with each construct for 22 hours, after which the cellular fluorescence was measured by flow cytometry.
The different modules led to several noticeable trends in the level of cellular fluorescence (FIG. 4). When module 2 was DPV6, the overall construct consistently led to high fluorescence, regardless of which peptides were placed in module 3 and 4. However, when either pVEC or TP10 was placed in module 2, minor cellular fluorescence was observed. […]

Substance | activity relative to PMO by itself (single peptide conjugated to PMO on its own) | cell viability, in words (low micromolar concentrations of copper in cell culture)
W/R: W/R peptide (RRWWRRWRR) conjugated to PMO on its own (also: conjugated to PMO (position not given here)) | around 3 × | –
copper | – | did not affect cell viability
